What all share (assay): Transient transfection (transactivation) assay in CV-1 cells, GAL4-PPAR chimera, luciferase reporter
Common to all, as to assay type: cell-based
(In general: Reporter assays use an easily measured gene product as a stand-in for the process of interest.)

One assay addresses T1, PPAR delta (Homo sapiens, UniProt Q03181).
T1 construct: expressed in transfected cells; host or cells: CV-1 cells
T1 sequence (Q03181 211-439 limits assumed): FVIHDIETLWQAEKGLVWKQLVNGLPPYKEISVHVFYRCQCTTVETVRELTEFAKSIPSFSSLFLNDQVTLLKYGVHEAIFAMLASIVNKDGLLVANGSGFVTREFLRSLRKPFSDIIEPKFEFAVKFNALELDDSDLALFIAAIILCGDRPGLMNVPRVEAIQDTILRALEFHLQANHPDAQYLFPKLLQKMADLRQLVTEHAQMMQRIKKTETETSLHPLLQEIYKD

The next assay deals with T2, PPAR gamma (Homo sapiens, UniProt P37231).
T2 construct: expressed in transfected cells; host or cells: CV-1 cells
T2 sequence (P37231 238-503 limits assumed): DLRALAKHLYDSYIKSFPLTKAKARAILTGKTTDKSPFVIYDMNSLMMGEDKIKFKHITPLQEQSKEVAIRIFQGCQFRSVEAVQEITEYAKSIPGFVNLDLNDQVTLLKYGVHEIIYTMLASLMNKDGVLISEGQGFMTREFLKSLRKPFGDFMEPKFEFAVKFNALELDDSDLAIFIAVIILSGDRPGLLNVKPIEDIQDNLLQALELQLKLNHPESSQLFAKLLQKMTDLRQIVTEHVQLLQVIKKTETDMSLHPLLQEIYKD

A further assay deals with T3, PPAR alpha (Homo sapiens, UniProt Q07869).
T3 construct: expressed in transfected cells; host or cells: CV-1 cells
T3 sequence (Q07869 239-466 limits assumed): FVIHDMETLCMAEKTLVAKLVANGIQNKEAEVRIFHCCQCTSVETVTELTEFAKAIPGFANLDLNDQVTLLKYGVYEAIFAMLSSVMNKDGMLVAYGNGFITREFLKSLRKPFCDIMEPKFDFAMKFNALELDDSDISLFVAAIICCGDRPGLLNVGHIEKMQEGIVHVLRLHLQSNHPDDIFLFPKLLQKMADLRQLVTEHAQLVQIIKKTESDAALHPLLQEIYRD
The method in brief:
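EC50 and efficacy come from a luciferase read-out after 20-24 hours of compound exposure (vehicle 1% DMSO) in transiently transfected CV-1 cells. These cells express a GAL4-PPAR ligand-binding-domain chimera plus a reporter with four or five GAL4 binding sites, and are kept in phenol-red free DME with 5% delipidated calf serum.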

Bounds are passed on as bounds.

In patent US20050234046A1 (Kalypsys, Inc., priority 2004, published 2005) one finds EC50 data, which are given here for 24 compounds.

With `O=C(O)Cc1cc(COCCO)cc(S(=O)(=O)N2CCN(c3ccc(C(F)(F)F)cc3)CC2)c1` [Example 91, {3-(2-Hydroxy-ethoxymethyl)-5-[4-(4-trifluoromethyl-phenyl)-piperazine-1-sulfonyl]-phenyl}-acetic acid], the EC50 at PPAR delta, at PPAR gamma and on PPAR alpha was over 100 µM each time.
For `O=C(O)Cc1cccc(S(=O)(=O)N2CCN(c3ccc(OC(F)(F)F)cc3)CC2)c1` [Example 92, {3-[4-(4-Trifluoromethoxy-phenyl)-piperazine-1-sulfonyl]-phenyl}-acetic acid], the concentration giving a half-maximal response (EC50) (usually the midpoint of the concentration-response curve) was under 5 µM on PPAR delta, over 100 µM at PPAR gamma and under 5 µM at PPAR alpha.
Regarding `Cc1ccc(S(=O)(=O)N2CCN(c3ccc(C(F)(F)F)c(Cl)c3)CC2)cc1CC(=O)O` [Example 93, {5-[4-(3-Chloro-4-trifluorometbyl-phenyl)-piperazine-1-sulfonyl]-2-methyl-phenyl}-acetic acid], the EC50 on PPAR delta is under 5 µM; at PPAR gamma, 5 to 100 µM; at PPAR alpha, under 5 µM.
As for `CCC1CN(S(=O)(=O)c2ccc(C)c(CC(=O)O)c2)CCN1c1ccc(C(F)(F)F)cn1` (stereo not drawn) [Example 94, {5-[3-Ethyl-4-(5-trifluoromethyl-pyridin-2-yl)-piperazine-1-sulfonyl]-2-methyl-phenyl}-acetic acid], the EC50 was under 5 µM at PPAR delta, under 5 µM on PPAR gamma and 5 to 100 µM on PPAR alpha.
Take `Cc1ccc(S(=O)(=O)N2CCN(c3ccc(C(F)(F)F)nc3)CC2)cc1CC(=O)O` [Example 95, {2-Methyl-5-[4-(6-trifluoromethyl-pyridin-3-yl)-piperazine-1-sulfonyl]-phenyl}-acetic acid]: the half-maximal effective concentration (EC50) on PPAR delta was under 5 µM; at PPAR gamma it was over 100 µM; at PPAR alpha, over 100 µM.
Consider `O=C(O)Cc1cccc(S(=O)(=O)N2CCN(c3ccc(C(F)(F)F)cc3Br)CC2)c1` [Example 96], for which the EC50 at PPAR delta is under 5 µM; at PPAR gamma it was over 100 µM; on PPAR alpha it was under 5 µM.
For the compound `Cc1ccc(S(=O)(=O)N2CCN(c3ccc(C(F)(F)F)cc3Br)CC2)cc1CC(=O)O` [Example 97, {5-[4-(2-Bromo-4-trifluoromethyl-phenyl)-piperazine-1-sulfonyl]-2-methyl-phenyl-}acetic acid], the results for the half-maximal effective concentration (EC50) at PPAR delta, on PPAR gamma and on PPAR alpha were under 5 µM, over 100 µM and under 5 µM, respectively.
For the compound `CCC1CN(c2ccc(C(F)(F)F)c(Cl)c2)CCN1S(=O)(=O)c1ccc(C)c(CC(=O)O)c1` (stereo not drawn) [Example 98, {5-[2-Ethyl-4-(3-chloro-4-trifluoromethyl-phenyl)-piperazine-1-sulfonyl]-2-methyl-phenyl}-acetic acid], the concentration for a half-maximal effect (EC50) was under 5 µM at PPAR delta, over 100 µM on PPAR gamma and under 5 µM on PPAR alpha.
`Cc1ccc(S(=O)(=O)N2CCN(c3ccc(OC(F)(F)F)cc3)[C@@H](C)C2)cc1CC(=O)O` [Example 99]: the 50% effective concentration (EC50) was under 5 µM on PPAR delta, 5 to 100 µM at PPAR gamma and under 5 µM on PPAR alpha.
As for `Cc1ccc(S(=O)(=O)N2[C@H](C)CN(c3ccc(OC(F)(F)F)cc3)C[C@@H]2C)cc1CC(=O)O` [Example 100, {5-[2,6-Dimethyl-4-(4-trifluoromethoxy-phenyl)-piperazine-1-sulfonyl]-2-methyl-phenyl}-acetic acid], the results for the EC50 on PPAR delta, on PPAR gamma and at PPAR alpha were under 5 µM, 5 to 100 µM and 5 to 100 µM, respectively.
With `Cc1ccc(S(=O)(=O)N2CCN(c3ccc(Cl)c(Cl)c3)C[C@@H]2C)cc1CC(=O)O` [Example 101, {5-[4-(3,4-Dichloro-phenyl)-2-(S)-methyl-piperazine-1-sulfonyl]-2-methyl-phenyl}-acetic acid], the EC50 is under 5 µM at PPAR delta, 5 to 100 µM on PPAR gamma and 5 to 100 µM on PPAR alpha.
In the case of `Cc1ccc(S(=O)(=O)N2CCN(c3ccc(Cl)c(Cl)c3)[C@@H](C)C2)cc1CC(=O)O` [Example 102, {5-[4-(3,4-Dichloro-phenyl)-3-(S)-methyl-piperazine-1-sulfonyl]-2-methyl-phenyl}-acetic acid], the results for the EC50 at PPAR delta, at PPAR gamma and at PPAR alpha were under 5 µM, 5 to 100 µM and 5 to 100 µM, respectively.
`Cc1ccc(S(=O)(=O)N2[C@@H](C)CN(c3ccc(C(F)(F)F)cn3)C[C@@H]2C)cc1CC(=O)O` [Example 103, {5-[2,6-(S,S)-Dimethyl-4-(5-trifluoromethyl-pyridin-2-yl)-piperazine-1-sulfonyl]-2-methyl-phenyl}-acetic acid]: the concentration for a half-maximal effect (EC50) at PPAR delta is under 5 µM; at PPAR gamma, 5 to 100 µM; on PPAR alpha it was 5 to 100 µM.
Take `Cc1ccc(S(=O)(=O)N2[C@H](C)CN(c3ccc(C(F)(F)F)c(Cl)c3)C[C@@H]2C)cc1CC(=O)O` [Example 107, {5-[4-(3-Chloro-4-trifluoromethyl-phenyl)-2,6-dimethyl-piperazine-1-sulfonyl]-2-methyl-phenyl}-acetic acid]: the concentration giving a half-maximal response (EC50) at PPAR delta is under 5 µM; on PPAR gamma it was over 100 µM; on PPAR alpha, over 100 µM.
Consider `Cc1ccc(S(=O)(=O)N2C[C@H](C)N(c3ccc(C(F)(F)F)cn3)[C@@H](C)C2)cc1CC(=O)O` [Example 108, {5-[3,5-(S,S)-Dimethyl-4-(5-trifluoromethyl-pyridin-2-yl)-piperazine-1-sulfonyl]-2-methyl-phenyl}-acetic acid], for which the values for the EC50 at PPAR delta, on PPAR gamma and on PPAR alpha were under 5 µM, 5 to 100 µM and 5 to 100 µM, respectively.
On to `C[C@@H]1CN(c2ccc(OC(F)(F)F)cc2)C[C@H](C)N1S(=O)(=O)c1cccc(CC(=O)O)c1` [Example 109, {3-[2,6-Dimethyl-4-(4-trifluoromethoxy-phenyl)-piperazine-1-sulfonyl]-phenyl}-acetic acid], for which the 50% effective concentration (EC50) was under 5 µM at PPAR delta, over 100 µM at PPAR gamma and 5 to 100 µM at PPAR alpha.
Taken in the same sequence, the figures for `Cc1cc(CC(=O)O)cc(S(=O)(=O)N2[C@H](C)CN(c3ccc(OC(F)(F)F)cc3)C[C@@H]2C)c1` [Example 110, {3-[2,6-Dimethyl-4-(4-trifluoromethoxy-phenyl)-piperazine-1-sulfonyl]-5-methyl-phenyl}-acetic acid] were under 5 µM, 5 to 100 µM and 5 to 100 µM.
Taken in the same sequence, the figures for `C[C@@H]1CN(c2ccc(OC(F)(F)F)cc2)C[C@H](C)N1S(=O)(=O)c1cc(CC(=O)O)cc(C(F)(F)F)c1` [Example 111, {3-[2,6-Dimethyl-4-(4-trifluoromethoxy-phenyl)-piperazine-1-sulfonyl]-5-trifluoromethyl-phenyl}-acetic acid] were under 5 µM, 5 to 100 µM and 5 to 100 µM.
In the same order, the values of `Cc1cc(CC(=O)O)cc(S(=O)(=O)N2[C@H](C)CN(c3ccc(C(F)(F)F)c(Cl)c3)C[C@@H]2C)c1` [Example 112, {3-[4-(3-Chloro-4-trifluoromethyl-phenyl)-2,6-dimethyl-piperazine-1-sulfonyl]-5-methyl-phenyl}-acetic acid] are under 5 µM, over 100 µM and 5 to 100 µM.
Turning to `C[C@@H]1CN(c2ccc(C(F)(F)F)c(F)c2)C[C@H](C)N1S(=O)(=O)c1cccc(CC(=O)O)c1` [Example 113, {3-[4-(3-Fluoro-4-trifluoromethyl-phenyl)-2,6-dimethyl-piperazine-1-sulfonyl]-phenyl}-acetic acid], the 50% effective concentration (EC50) is under 5 µM at PPAR delta, over 100 µM at PPAR gamma and 5 to 100 µM on PPAR alpha.
Taken in the same sequence, the figures for `C[C@@H]1CN(c2ccc(C(F)(F)F)c(Cl)c2)C[C@H](C)N1S(=O)(=O)c1cccc(CC(=O)O)c1` [Example 114, {3-[4-(3-Chloro-4-trifluoromethyl-phenyl)-2,6-dimethyl-piperazine-1-sulfonyl]-phenyl}-acetic acid] were under 5 µM, over 100 µM and 5 to 100 µM.
Taken in the same sequence, the figures for `O=C(O)Cc1cccc(S(=O)(=O)N2CCN(c3ccc(Cl)c(Cl)c3)CC2)c1` [Example 115, {3-[4-(3,4-Dichloro-phenyl)-piperazine-1-sulfonyl]-phenyl}-acetic acid] were under 5 µM, 5 to 100 µM and 5 to 100 µM.
In the same order, the values of `O=C(O)Cc1cccc(S(=O)(=O)N2CCN(c3ccc(Cl)cc3)CC2)c1` [Example 116, {3-[4-(4-Chloro-phenyl)-piperazine-1-sulfonyl]-phenyl}-acetic acid] are under 5 µM, 5 to 100 µM and over 100 µM.
For the compound `Cc1ccc(N2CCN(S(=O)(=O)c3cccc(CC(=O)O)c3)CC2)c(C)c1` [Example 117, {3-[4-(2,4-Dimethyl-phenyl)-piperazine-1-sulfonyl]-phenyl}-acetic acid], the figures for the EC50 on PPAR delta, on PPAR gamma and at PPAR alpha were under 5 µM, 5 to 100 µM and over 100 µM, respectively.
